Measurements reported in US7022648B2, “Plant seeds treated with N,N′-substituted ureas” (Stoller Enterprises, Inc., priority 1996, dated 2006).
“And” between values parts separate entries of the source, which are not always exact repeats. Equal entries are not always repeated.

What was measured:
Type in all cases: in vivo
[1] = tested on: Corn; experiment: Preliminary greenhouse pot test, seeds soaked in diformylurea solution, root and shoot mass; settings: seed soak 24 h, 30 days
Procedure: (§1) In a preliminary experiment to determine the agricultural value of the N,N′-diformylurea prepared above, a concentrate was prepared by mixing 200 grams diformylurea and 200 grams formic acid, adjusting the ph to about 5.5 by the addition of potassium hydroxide and adding sufficient water to make 1 liter. […] Low, medium and high dilution aqueous solutions were prepared by diluting, respectively, 0.8 grams, 8.0 grams and 40.0 grams of the concentrate per liter of final solution. […] The foregoing solutions were used to coat corn, soybean, cotton and rice seeds prior to planting. Coating was achieved by soaking the seeds in the foregoing solutions for about 24 hours. Sufficient solution was used to keep the seeds immersed. Control seeds were soaked in water for the same time. Untreated or control seeds, together with seeds treated by the low, medium and high dilution solutions, were planted in 1 gallon greenhouse pots. Six pots were used for each dilution or control with five seeds planted per pot. The plants were thinned to two plants per pot after emergence. The plants were watered and fertilized as required. After 30 days the plants were harvested and the roots and shoots examined. The roots and shoots were weighed separately and the root/shoot ratio determined. The treated plants were generally characterized by both greater root mass and shoot mass when compared to the controls. The root/shoot ratio for most of the treated plants was greater than that for the controls.

[2] = tested on: Cotton; experiment: as above; settings: seed soak 24 h, 30 days
Procedure: as §1

[3] = tested on: Rice; experiment: as above; settings: seed soak 24 h, 30 days
Procedure: as §1

[4] = tested on: Soybean; experiment: as above; settings: seed soak 24 h, 30 days
Procedure: as §1

[5] = tested on: Corn; experiment: Greenhouse pot test, effect of diformylurea concentration applied to seeds; settings: seed treated, 24 h soak, 30 days; for Roots (gm), Average / Shoots (gm), Average / Total (gm), Average: average of samples; for Roots (gm) / Shoots (gm) / Total (gm): single sample (pot)
Procedure: Additional experiments were designed to study further the effect of the concentration of diformylurea applied to the seeds of several other crops. These experiments were conducted using cotton, rice, corn and soybeans. These experiments were similar to the preliminary experiments described above. The concentrate described above, containing both diformylurea and formate, was used to prepare solutions containing low, medium and high concentrations of diformylurea having, respectively, 0.001 M, 0.01 M and 0.05 M diformylurea. These solutions were used to treat the seeds of cotton, rice, corn and soybeans. Seeds of each of these crops were soaked in water or the prepared aqueous solutions of diformylurea for 24 hours before planting. Five seeds were planted in each of six, 1 gallon greenhouse pots. Pots were thinned to two plants after germination and the plants watered and fertilized as needed for 30 days. Thereafter, the plants were harvested and the mass of the roots, shoots and total mass determined.

[6] = tested on: Rice; experiment: Single application to rice at tillering, yield; settings: 50 grams per acre at tillering
Excerpt: The reaction products of the present invention, specifically N,N′-diformylurea, have been used to enhance the growth of plants. […] For example, a single application to rice at the rate of 50 grams per acre at tillering has produced a 25 percent increase in yield.

Which results are given for `O=CNC(=O)NC=O` [diformylurea, N,N′-diformylurea]?
crown roots on plants grown from treated seeds [1]: crown roots were noticed; Root/Shoot Ratio ([1]; High dilution, 0.068 M): 1.09; Roots (gm) ([1]; High dilution, 0.068 M): 9.60 gm; Shoots (gm) ([1]; High dilution, 0.068 M): 8.80 gm; Total (gm) ([1]; High dilution, 0.068 M): 18.40 gm; Root/Shoot Ratio ([1]; Low dilution, 0.0013 M): 1.04; Roots (gm) ([1]; Low dilution, 0.0013 M): 9.80 gm; Shoots (gm) ([1]; Low dilution, 0.0013 M): 9.40 gm; Total (gm) ([1]; Low dilution, 0.0013 M): 19.20 gm; Root/Shoot Ratio ([1]; Medium dilution, 0.013 M): 1.08; Roots (gm) ([1]; Medium dilution, 0.013 M): 10.40 gm; Shoots (gm) ([1]; Medium dilution, 0.013 M): 9.60 gm; Total (gm) ([1]; Medium dilution, 0.013 M): 20.00 gm; Root/Shoot Ratio ([2]; High dilution, 0.068 M): 0.73; Roots (gm) ([2]; High dilution, 0.068 M): 5.07 gm; Shoots (gm) ([2]; High dilution, 0.068 M): 6.90 gm; Total (gm) ([2]; High dilution, 0.068 M): 11.97 gm; Root/Shoot Ratio ([2]; Low dilution, 0.0013 M): 1.46; Roots (gm) ([2]; Low dilution, 0.0013 M): 7.85 gm; Shoots (gm) ([2]; Low dilution, 0.0013 M): 5.38 gm; Total (gm) ([2]; Low dilution, 0.0013 M): 13.23 gm; Root/Shoot Ratio ([2]; Medium dilution, 0.013 M): 1.08; Roots (gm) ([2]; Medium dilution, 0.013 M): 4.50 gm; Shoots (gm) ([2]; Medium dilution, 0.013 M): 5.25 gm; Total (gm) ([2]; Medium dilution, 0.013 M): 9.75 gm; crown roots on plants grown from treated seeds [3]: crown roots were noticed; Root/Shoot Ratio ([3]; High dilution, 0.068 M): 2.10; Roots (gm) ([3]; High dilution, 0.068 M): 0.82 gm; Shoots (gm) ([3]; High dilution, 0.068 M): 0.39 gm; Total (gm) ([3]; High dilution, 0.068 M): 1.21 gm; Root/Shoot Ratio ([3]; Low dilution, 0.0013 M): 1.78; Roots (gm) ([3]; Low dilution, 0.0013 M): 0.61 gm; Shoots (gm) ([3]; Low dilution, 0.0013 M): 0.34 gm; Total (gm) ([3]; Low dilution, 0.0013 M): 0.95 gm; Root/Shoot Ratio ([3]; Medium dilution, 0.013 M): 1.86; Roots (gm) ([3]; Medium dilution, 0.013 M): 3.07 gm; Shoots (gm) ([3]; Medium dilution, 0.013 M): 1.84 gm; Total (gm) ([3]; Medium dilution, 0.013 M): 4.91 gm; Root/Shoot Ratio ([4]; Low dilution, 0.0013 M): 0.93; Roots (gm) ([4]; Low dilution, 0.0013 M): 4.60 gm; Shoots (gm) ([4]; Low dilution, 0.0013 M): 4.90 gm; Total (gm) ([4]; Low dilution, 0.0013 M): 9.50 gm; Root/Shoot Ratio ([4]; Medium dilution, 0.013 M): 1.20; Roots (gm) ([4]; Medium dilution, 0.013 M): 4.90 gm; Shoots (gm) ([4]; Medium dilution, 0.013 M): 4.10 gm; Total (gm) ([4]; Medium dilution, 0.013 M): 9.00 gm; Percent Change v. Control, Roots ([5]; 0.001 M): 2%; Percent Change v. Control, Shoots ([5]; 0.001 M): 5%; Percent Change v. Control, Total ([5]; 0.001 M): 3%; Root/Shoot Ratio ([5]; 0.001 M): 1.04; Roots (gm), Average ([5]; 0.001 M): 19.65 gm; Shoots (gm), Average ([5]; 0.001 M): 18.85 gm; Total (gm), Average ([5]; 0.001 M): 38.50 gm; Roots (gm) ([5]; 0.001 M): 18.90 gm and 17.20 gm and 27.00 gm and 19.10 gm and 18.10 gm and 17.60 gm; Shoots (gm) ([5]; 0.001 M): 21.10 gm and 14.00 gm and 17.60 gm and 22.00 gm and 18.90 gm and 19.50 gm; Total (gm) ([5]; 0.001 M): 40.00 gm and 31.20 gm and 44.60 gm and 41.10 gm and 37.00 gm and 37.10 gm; Percent Change v. Control, Roots ([5]; 0.01 M): 9%; Percent Change v. Control, Shoots ([5]; 0.01 M): 7%; Percent Change v. Control, Total ([5]; 0.01 M): 8%; Root/Shoot Ratio ([5]; 0.01 M): 1.09; Roots (gm), Average ([5]; 0.01 M): 20.92 gm; Shoots (gm), Average ([5]; 0.01 M): 19.17 gm; Total (gm), Average ([5]; 0.01 M): 40.09 gm; Roots (gm) ([5]; 0.01 M): 16.20 gm and 25.10 gm and 24.10 gm and 20.00 gm and 15.30 gm and 24.80 gm; Shoots (gm) ([5]; 0.01 M): 18.60 gm and 22.10 gm and 23.00 gm and 16.60 gm and 15.50 gm and 19.70 gm; Total (gm) ([5]; 0.01 M): 34.80 gm and 47.20 gm and 47.10 gm and 36.60 gm and 30.80 gm and 44.50 gm; Percent Change v. Control, Roots ([5]; 0.05 M): 0%; Percent Change v. Control, Shoots ([5]; 0.05 M): −2%; Percent Change v. Control, Total ([5]; 0.05 M): −1%; Root/Shoot Ratio ([5]; 0.05 M): 1.09; Roots (gm), Average ([5]; 0.05 M): 19.20 gm; Shoots (gm), Average ([5]; 0.05 M): 17.62 gm; Total (gm), Average ([5]; 0.05 M): 36.82 gm; Roots (gm) ([5]; 0.05 M): 17.90 gm and 20.40 gm and 17.80 gm and 21.20 gm and 18.70 gm; Shoots (gm) ([5]; 0.05 M): 17.40 gm and 20.60 gm and 15.90 gm and 18.40 gm and 15.80 gm; Total (gm) ([5]; 0.05 M): 35.30 gm and 41.00 gm and 33.70 gm and 39.60 gm and 34.50 gm; increase in yield [6]: 25%
